Target: T1, human IsK protein (Homo sapiens, UniProt P15382)
T1 construct: only IsK injected, pore from oocyte's endogenous KCNQ1; two-microelectrode voltage clamp
Assay: Inhibition of IsK current in Xenopus oocytes expressing human IsK protein (two-microelectrode voltage-clamp)
Format: cell-based
Conditions: human IsK expressed in Xenopus oocytes; activated to -10 mV, 15 s voltage jumps, room temperature; Hill equation

T1 sequence (P70057 whole entry partner): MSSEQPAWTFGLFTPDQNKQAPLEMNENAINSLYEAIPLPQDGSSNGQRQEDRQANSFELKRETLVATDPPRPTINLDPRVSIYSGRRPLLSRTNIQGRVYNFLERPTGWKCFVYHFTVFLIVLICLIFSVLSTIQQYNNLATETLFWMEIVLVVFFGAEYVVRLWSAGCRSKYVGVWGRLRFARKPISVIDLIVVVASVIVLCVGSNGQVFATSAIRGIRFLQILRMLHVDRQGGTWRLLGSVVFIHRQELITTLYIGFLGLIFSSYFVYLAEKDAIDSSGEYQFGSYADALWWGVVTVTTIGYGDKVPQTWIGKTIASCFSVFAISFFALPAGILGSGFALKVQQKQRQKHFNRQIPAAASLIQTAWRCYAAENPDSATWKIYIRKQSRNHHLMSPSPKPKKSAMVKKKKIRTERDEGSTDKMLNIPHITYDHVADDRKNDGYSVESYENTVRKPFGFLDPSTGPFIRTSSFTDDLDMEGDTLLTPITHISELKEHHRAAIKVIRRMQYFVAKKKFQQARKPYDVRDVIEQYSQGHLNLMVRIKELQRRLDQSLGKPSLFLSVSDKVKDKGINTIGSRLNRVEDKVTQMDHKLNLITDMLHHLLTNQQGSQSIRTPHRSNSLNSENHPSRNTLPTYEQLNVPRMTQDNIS

Row | IC50 [nM] | Structure (SMILES)
1 | 2490 | CCCN(C1CC(C)(C)Oc2ccc(OCC(=O)NCCCOCC)cc21)S(=O)(=O)CC (stereo not drawn) [Example 23, 2-[4-(Ethanesulfonyl-(1-propyl)amino)-2,2-dimethylchroman-6-yloxy]-N-(3-ethoxypropyl)acetamide]
2 | 380 | CCS(=O)(=O)N(C)C1CC(C)(C)Oc2ccc(-c3cccs3)cc21 (stereo not drawn) [Example 26, Ethanesulfonic acid (2,2-dimethyl-6-thiophen-2-yl-chroman-4-yl)methylamide]
3 | ~8000 | CCN(C1CC(C)(C)Oc2ccc(OCc3cc(OC)ccn3)cc21)S(C)(=O)=O (stereo not drawn) [Example 10, N-Ethyl--N-[6-(((4-methoxypyridin-2-yl)methyl)oxy)-2,2-dimethylchroman-4-yl]methanesulfonamide]
4 | 7430 | CCN(C1CC(C)(C)Oc2ccc(OCCO)cc21)S(C)(=O)=O (stereo not drawn) [Example 8, N-Ethyl-N-[6-(2-hydroxyethoxy)-2,2-dimethylchroman-4-yi]-methanesulfonamide]
5 | 690 | CCOCCOc1ccc2c(c1)C(N(CC)S(C)(=O)=O)CC(C)(C)O2 (stereo not drawn) [Example 9, N-[6-(2-Ethoxyethoxy)-2,2-dimethylchroman-4-yl]-N-ethylmethanesulfonamide]
6 | 320 | CCOCCCOc1ccc2c(c1)C(N(C)S(C)(=O)=O)CC(C)(C)O2 (stereo not drawn) [Example 15, N-[6-(3-Ethoxypropoxy)-2,2-dimethylchroman-4-yl]-N-methylmethanesulfonamide]
7 | ~1000 | CCOCCOc1ccc2c(c1)C(N(CCOC)S(C)(=O)=O)CC(C)(C)O2 (stereo not drawn) [Example 17, N-[6-(2-Ethoxyethoxy)-2,2-dimethylchroman-4-yl]-N-(2-methoxyethyl)methanesulfonamide]
8 | 6360 | CCN(C1CC(C)(C)Oc2ccc(OCCCCC(=O)NCCOC)cc21)S(C)(=O)=O (stereo not drawn) [Example 3, 5-[4-(Ethylmethanesulfonylamino)-2,2-dimethylchroman-6-yloxy]pentanoic acid (2-methoxyethyl)amide]
9 | ~3000 | CCCN(C1CC(C)(C)Oc2ccc(OCC(=O)NCCOC)cc21)S(=O)(=O)CC (stereo not drawn) [Example 22, 2-[4-(Ethanesulfonyl-(1-propyl)amino)-2,2-dimethylchroman-6-yloxy]-N-(2-methoxyethyl)acetamide]
10 | 1740 | CCOCCCOc1ccc2c(c1)C(N(CCOC)S(C)(=O)=O)CC(C)(C)O2 (stereo not drawn) [Example 21, N-[6-(3-Ethoxypropoxy)-2,2-dimethylchroman-4-yl]-N-(2-methoxyethyl)methanesulfonamide]
11 | 430 | CCOCCCOc1ccc2c(c1)C(N(CC)S(C)(=O)=O)CC(C)(C)O2 (stereo not drawn) [Example 1, N-[6-(3-Ethoxypropoxy)-2,2-dimethylchroman-4-yl]-N-ethyl-methanesulfonamide]
12 | 1710 | CCN(C1CC(C)(C)Oc2ccc(OCCCCCO)cc21)S(C)(=O)=O (stereo not drawn) [Example 2, N-Ethyl-N-[6-(5-hydroxypentyloxy)-2,2-dimethylchroman-4-yl]methanesulfonamide]
